Measured values published in patent publication US9580390B2, “Indazole compounds as kinase inhibitors and method of treating cancer with same” (University Health Network, priority 2011, dated 2017).
Read-outs that look alike come from different tables or passages of the source.

What was measured:
human PLK4 = molecular target: T1, human PLK4 (Homo sapiens, UniProt O00444); experiment: PLK4 inhibition assay (indirect ELISA); type: biochemical; details: 15 μM ATP
T1 construct: amino terminal GST fusion of residues 1-391 of human PLK4; made in house; host or cells: E. coli
T1 sequence (O00444 1-391): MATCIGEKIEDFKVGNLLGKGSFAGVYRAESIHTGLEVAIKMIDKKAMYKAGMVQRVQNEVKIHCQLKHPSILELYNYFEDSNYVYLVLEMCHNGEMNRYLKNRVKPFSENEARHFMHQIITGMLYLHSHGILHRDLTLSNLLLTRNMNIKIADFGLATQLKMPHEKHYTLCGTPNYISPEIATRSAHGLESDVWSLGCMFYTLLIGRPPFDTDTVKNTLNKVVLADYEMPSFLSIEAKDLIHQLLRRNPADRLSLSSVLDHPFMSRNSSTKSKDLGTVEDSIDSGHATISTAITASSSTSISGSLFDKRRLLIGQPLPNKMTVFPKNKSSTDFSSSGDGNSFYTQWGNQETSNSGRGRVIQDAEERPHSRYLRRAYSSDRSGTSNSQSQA
Procedure, shortened: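 Dephosphorylated GST-PLK4 (residues 1-391, E. coli; 4 nM) was preincubated 15 min with compound, then reacted 30 min with 15 μM ATP in HEPES pH 7.4, MgCl2, Brij 35 on MBP-coated plates. Phospho-MBP was detected by antibody/HRP ELISA at 450 nm; IC50 from 10-point titration by 4-parameter logistic fit, or single 10 μM % inhibition.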

human TTK = molecular target: T2, human TTK (Homo sapiens, UniProt P33981); experiment: TTK inhibition assay (indirect ELISA); type: biochemical; details: read-out: TTK IC50 Range
T2 construct: amino terminal GST fusion of full length human TTK; purchased Invitrogen
T2 sequence (P33981 1-857): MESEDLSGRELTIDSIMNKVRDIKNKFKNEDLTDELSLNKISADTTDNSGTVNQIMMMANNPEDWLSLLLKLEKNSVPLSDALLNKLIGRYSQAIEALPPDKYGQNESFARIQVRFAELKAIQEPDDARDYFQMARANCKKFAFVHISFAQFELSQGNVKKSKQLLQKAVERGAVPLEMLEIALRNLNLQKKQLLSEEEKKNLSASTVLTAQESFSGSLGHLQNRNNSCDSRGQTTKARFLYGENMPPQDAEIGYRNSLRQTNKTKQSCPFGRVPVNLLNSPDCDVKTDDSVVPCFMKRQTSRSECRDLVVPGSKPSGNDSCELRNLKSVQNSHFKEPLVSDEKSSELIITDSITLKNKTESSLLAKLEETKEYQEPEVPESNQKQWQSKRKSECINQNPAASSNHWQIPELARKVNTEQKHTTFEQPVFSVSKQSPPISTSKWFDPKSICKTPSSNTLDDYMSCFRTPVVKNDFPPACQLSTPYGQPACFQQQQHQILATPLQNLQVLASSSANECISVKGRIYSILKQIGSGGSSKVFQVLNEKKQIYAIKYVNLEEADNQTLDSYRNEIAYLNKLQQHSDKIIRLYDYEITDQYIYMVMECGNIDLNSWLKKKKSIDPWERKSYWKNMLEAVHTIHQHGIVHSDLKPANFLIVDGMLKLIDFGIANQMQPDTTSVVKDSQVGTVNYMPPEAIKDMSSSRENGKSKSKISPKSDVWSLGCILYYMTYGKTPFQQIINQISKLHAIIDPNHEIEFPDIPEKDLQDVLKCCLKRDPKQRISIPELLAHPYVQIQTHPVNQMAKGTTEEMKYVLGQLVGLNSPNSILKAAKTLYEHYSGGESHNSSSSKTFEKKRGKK

[1] = tested on: ovarian cancer cells (PA-1); experiment: Cancer cell line growth inhibition (SRB assay); type: cell-based; details: read-out: Cancer Cell Line GI50 Range PA-1
Breast cancer cells = experiment: Cancer cell line growth inhibition (SRB assay); type: cell-based; details: Homo sapiens; MDA-MB-468; read-out: Cancer Cell Line GI50 Range MDA-MB-468
[2] = tested on: colon cancer cells (HCT116); experiment: Cancer cell line growth inhibition (SRB assay); type: cell-based; details: Homo sapiens, HCT-116, read-out: Cancer Cell Line GI50 Range HCT116
TICs (Ovarian 2393A) = experiment: Ovarian tumor-initiating cell growth inhibition (Alamar Blue); type: cell-based; details: 144 h, 6 days, read-out: Tumor Initiating Cell GI50 Range Ovarain 2393A
TICs (Colon 12) = experiment: Colon tumor-initiating cell growth inhibition (Alamar Blue); type: cell-based; details: 216 h, 9 days, read-out: Tumor Initiating Cell GI50 Range Colon 12

| GI50 ([1]; PA-1 ovarian cancer cells, SRB assay) [nM] | GI50 ([2]; HCT116 colon cancer cells, SRB assay) [nM] | GI50 (TICs (Ovarian 2393A); ovarian TICs, Alamar Blue) [nM] | GI50 (TICs (Colon 12); colon TICs, Alamar Blue) [nM] | Structure (SMILES) | IC50 (human PLK4) [nM] | IC50 (human TTK) [nM] | GI50 ([1]; Homo sapiens, PA-1) [nM] | GI50 (Breast cancer cells) [nM] | GI50 [2] [nM] | GI50 (TICs (Ovarian 2393A); Ovarian 2393A TICs) [nM] | GI50 (TICs (Colon 12); Colon 12 TICs) [nM] |
| --- | --- | --- | --- | --- | --- | --- | --- | --- | --- | --- | --- |
| – | – | – | – | CC(C)CC(NC(=O)c1ccc2[nH]nc(-c3ccc(N4CCN(C5COC5)CC4)cc3)c2c1)c1ccccc1Cl (stereo not shown) [Example A298, N-(1-(2-chlorophenyl)-3-methylbutyl)-3-(4-(4-(oxetan-3-yl)piperazin-1-yl)phenyl)-1H-indazole-5-carboxamide] | < 50 | < 100 | < 100 | < 100 | < 100 | < 100 | < 100 |
| – | – | – | – | CC(C)C[C@H](NC(=O)c1ccc2[nH]nc(-c3ccc(N4CCN(C5COC5)CC4)cc3)c2c1)c1ccccc1Cl [Example A299, (S)-N-(1-(2-chlorophenyl)-3-methylbutyl)-3-(4-(4-(oxetan-3-yl)piperazin-1-yl)phenyl)-1H-indazole-5-carboxamide] | < 50 | < 100 | < 100 | < 100 | < 100 | < 100 | < 100 |
| – | – | – | – | CC(C)[C@H](NC(=O)c1ccc2[nH]nc(-c3ccc(OC4CC5CCC(C4)N5CCO)cc3)c2c1)c1ccccc1Cl (stereo partly drawn) [Example A337, N-((S)-1-(2-chlorophenyl)-2-methylpropyl)-3-(4-(((1R,3R,5S)-8-(2-hydroxyethyl)-8-azabicyclo[3.2.1]octan-3-yl)oxy)phenyl)-1H-indazole-5-carboxamide] | < 50 | < 100 | < 100 | < 100 | < 100 | < 100 | < 100 |
| – | – | – | – | CC(C)[C@H](NC(=O)c1ccc2[nH]nc(-c3ccc(OC4CC5CCC(C4)N5C)cc3)c2c1)c1ccccc1Cl (stereo partly drawn) [Example A287, N-((S)-1-(2-chlorophenyl)-2-methylpropyl)-3-(4-(((1R,3R,5S)-8-methyl-8-azabicyclo[3.2.1]octan-3-yl)oxy)phenyl)-1H-indazole-5-carboxamide] | < 50 | < 100 | < 100 | < 100 | < 100 | 100 to 500 | 100 to 500 |
| – | – | – | – | CC(C)[C@H](NC(=O)c1ccc2[nH]nc(-c3ccc(OC4CCN(C=O)CC4)cc3)c2c1)c1ccccc1Cl [Example A334, (S)-N-(1-(2-chlorophenyl)-2-methylpropyl)-3-(4-((1-formylpiperidin-4-yl)oxy)phenyl)-1H-indazole-5-carboxamide] | < 50 | < 100 | < 100 | – | < 100 | < 100 | < 100 |
| – | – | – | – | CN1C2CCC1CC(Oc1ccc(-c3n[nH]c4ccc(C(=O)N[C@@H](c5ccsc5)C5CCCC5)cc34)cc1)C2 (stereo partly drawn) [Example A247, N-((R)-cyclopentyl(thiophen-3-yl)methyl)-3-(4-(((1R,3R,5S)-8-methyl-8-azabicyclo[3.2.1]octan-3-yl)oxy)phenyl)-1H-indazole-5-carboxamide] | < 50 | < 100 | 100 to 500 | 100 to 500 | 100 to 500 | 100 to 500 | 100 to 500 |
| – | – | – | – | CN1C2CCC1CC(Oc1ccc(-c3n[nH]c4ccc(C(=O)N[C@@H](c5ccccc5Cl)C5CC5)cc34)cc1)C2 (stereo partly drawn) [Example A234, N-((R)-(2-chlorophenyl)(cyclopropyl)methyl)-3-(4-(((1R,3R,5S)-8-methyl-8-azabicyclo[3.2.1]octan-3-yl)oxy)phenyl)-1H-indazole-5-carboxamide] | < 50 | < 100 | < 100 | 100 to 500 | < 100 | 100 to 500 | 100 to 500 |
| – | – | – | – | CC(C)[C@@H](NC(=O)c1ccc2[nH]nc(-c3ccc(OC4CC5CCC(C4)N5C)cc3)c2c1)c1ccccc1Cl (stereo partly drawn) [Example A288, N-((R)-1-(2-chlorophenyl)-2-methylpropyl)-3-(4-(((1R,3R,5S)-8-methyl-8-azabicyclo[3.2.1]octan-3-yl)oxy)phenyl)-1H-indazole-5-carboxamide] | < 50 | < 100 | 100 to 500 | 100 to 500 | < 100 | 100 to 500 | 100 to 500 |
| – | – | – | – | CN1C2CCC1CC(Oc1ccc(-c3n[nH]c4ccc(C(=O)N[C@H](c5ccccc5Cl)C5CC5)cc34)cc1)C2 (stereo partly drawn) [Example A235, N-((S)-(2-chlorophenyl)(cyclopropyl)methyl)-3-(4-(((1R,3R,5S)-8-methyl-8-azabicyclo[3.2.1]octan-3-yl)oxy)phenyl)-1H-indazole-5-carboxamide] | < 50 | < 100 | < 100 | < 100 | < 100 | < 100 | < 100 |
| – | – | – | – | CC(C)[C@@H](NC(=O)c1ccc2[nH]nc(-c3ccc(OC4CCN(C)CC4)cc3)c2c1)c1ccccc1Cl [Example A274, (R)-N-(1-(2-chlorophenyl)-2-methylpropyl)-3-(4-((1-methylpiperidin-4-yl)oxy)phenyl)-1H-indazole-5-carboxamide] | < 50 | < 100 | 100 to 500 | > 500 | 100 to 500 | 100 to 500 | 100 to 500 |
| – | – | – | – | C[C@@H](O)CN1CCC(Oc2ccc(-c3n[nH]c4ccc(C(=O)N[C@@H](c5ccsc5)C5CCCC5)cc34)cc2)CC1 [Example A222, N-((R)-cyclopentyl(thiophen-3-yl)methyl)-3-(4-((1-((R)-2-hydroxypropyl)piperidin-4-yl)oxy)phenyl)-1H-indazole-5-carboxamide] | < 50 | < 100 | < 100 | 100 to 500 | < 100 | 100 to 500 | < 100 |
| – | – | – | – | CC(C)[C@H](NC(=O)c1ccc2[nH]nc(-c3ccc(OC4CC5CCC(C4)N5C=O)cc3)c2c1)c1ccccc1Cl (stereo partly shown) [Example A333] | < 50 | < 100 | < 100 | – | < 100 | < 100 | < 100 |
| – | – | – | – | CC(C)C[C@H](NC(=O)c1ccc2[nH]nc(-c3ccc(OC4CC5CCC(C4)N5C=O)cc3)c2c1)c1ccccn1 (stereo partly drawn) [Example A358, 3-(4-(((1R,3R,5S)-8-formyl-8-azabicyclo[3.2.1]octan-3-yl)oxy)phenyl)-N-((S)-3-methyl-1-(pyridin-2-yl)butyl)-1H-indazole-5-carboxamide] | < 50 | < 100 | < 100 | < 100 | < 100 | < 100 | < 100 |
| 100 to 500 | 100 to 500 | > 500 | > 500 | CO[C@@H](C(=O)Nc1ccc2[nH]nc(-c3ccc(OC4CCN(C=O)CC4)cc3)c2c1)c1ccccc1 [Example A169, (R)-N-(3-(4-((1-formylpiperidin-4-yl)oxy)phenyl)-1H-indazol-5-yl)-2-methoxy-2-phenylacetamide] | < 50 | – | – | – | – | – | – |
